Results as given in patent US10525073B2, “Method for improving kidney and/or heart function in patients with kidney disease” (MacKay Memorial Hospital, priority 2015, dated 2020).

How the values were obtained:
CKD rats [1] = assay: Blood urine nitrogen (BUN) and serum creatine (CR) levels in 5/6 nephrectomy CKD rats; format: in vivo, Sprague Dawley rats; conditions: 5/6 nephrectomy rats
Experimental: Sprague Dawley rats (7 weeks old) were kept in pathogen-free environment under 12:12 light-dark cycle with food and water provided ad libitum, ambient temperature and relative humidity were respectively set at 24±2° C. and 50±20%. All procedures involving animal studies of the present disclosure comply with the “Guideline for the Care and Use of Laboratory Animals” issued by The Chinese-Taipei Society of Laboratory Animal Sciences. SD rats (about 10 weeks old) scheduled to undergo 5/6 nephrectomy or sham surgery were anesthetized by Zoletil 50/Xylazine (6 mg/1.3 mg/Kg, i.p.). Then, the left kidney was exposed, and the upper and lower poles were tied with a suture line, followed by right nephrectomy. The peritoneum and skin were then sutured, and the animals were returned to their individual cages. For animals underwent sham surgery, the left kidney was exposed in similar manner, but was then placed back into the abdominal cavity without further treatment, peritoneum and skin were then sutured. Two weeks after sham or 5/6 nephrectomy surgery, the animals were subjected to a 24-hour urine collection and non-invasive tail blood pressure measurement every 4 weeks. Four weeks after the surgery, rats underwent 5/6 nephrectomy or shame surgery were randomly assigned into two groups, i.e., the control and the telbivudine groups, in which the control group received saline treatment, and rats in the telbivudine group received telbivudine (10 mg/mL/Kg) treatment for 8 or 12 weeks. Animals were then sacrificed, and kidney and heart biopsy samples were obtained. In this example, to evaluate the therapeutic function of telbivudine, animals were first subject to 5/6 nephrectomy to induce in vivo kidney failure before being treated with telbivudine. 5/6 nephrectomy is a procedure in which one kidney of a test animal is removed and 2/3 of the remaining kidney is ablated, thereby mimics the progressive renal failure after loss of renal mass in humans. Briefly, approximately 50% of the remaining kidney of the rat was removed by polar excision 1-2 weeks after uni-nephrectomy. Then, the animals were randomly assigned to two groups, the telbivudine group and the control group. […] Blood and urine samples were respectively collected on designated days and analyzed for the levels of blood urine nitrogen (BUN), serum creatine (CR), and hepatic enzymes (i.e., alanine aminotransferase (ALT) and aspartate aminotransferase (AST)). Heart function was determined by monitoring the changes in diastolic parameter-Tissue Velocity Imaging ([…] ratio, and the strain in cardia muscle (C_strain), left ventrical mass ([…]). Animals were sacrificed after the experiments were finished, and kidney biopsy samples were obtained.

CKD rats [2] = assay: Kidney fibrosis in kidney samples of CKD rats; format: in vivo, Sprague Dawley rats
Experimental: Sprague Dawley rats (7 weeks old) were kept in pathogen-free environment under 12:12 light-dark cycle with food and water provided ad libitum, ambient temperature and relative humidity were respectively set at 24±2° C. and 50±20%. All procedures involving animal studies of the present disclosure comply with the “Guideline for the Care and Use of Laboratory Animals” issued by The Chinese-Taipei Society of Laboratory Animal Sciences. SD rats (about 10 weeks old) scheduled to undergo 5/6 nephrectomy or sham surgery were anesthetized by Zoletil 50/Xylazine (6 mg/1.3 mg/Kg, i.p.). Then, the left kidney was exposed, and the upper and lower poles were tied with a suture line, followed by right nephrectomy. The peritoneum and skin were then sutured, and the animals were returned to their individual cages. For animals underwent sham surgery, the left kidney was exposed in similar manner, but was then placed back into the abdominal cavity without further treatment, peritoneum and skin were then sutured. Two weeks after sham or 5/6 nephrectomy surgery, the animals were subjected to a 24-hour urine collection and non-invasive tail blood pressure measurement every 4 weeks. Four weeks after the surgery, rats underwent 5/6 nephrectomy or shame surgery were randomly assigned into two groups, i.e., the control and the telbivudine groups, in which the control group received saline treatment, and rats in the telbivudine group received telbivudine (10 mg/mL/Kg) treatment for 8 or 12 weeks. […] Blood and urine samples were respectively collected on designated days and analyzed for the levels of blood urine nitrogen (BUN), serum creatine (CR), and hepatic enzymes (i.e., alanine aminotransferase (ALT) and aspartate aminotransferase (AST)). Heart function was determined by monitoring the changes in diastolic parameter-Tissue Velocity Imaging ([…] ratio, and the strain in cardia muscle (C_strain), left ventrical mass ([…]). Animals were sacrificed after the experiments were finished, and kidney biopsy samples were obtained.

[3] = system: IL-6, TGF-β, TIMP1 and COL-1-A1 in kidney tissue of CKD rats; assay: Quantitative RT-PCR of inflammatory genes in kidney tissue of CKD rats; format: in vivo, Sprague Dawley rats
Experimental: (§1) SD rats (about 10 weeks old) scheduled to undergo 5/6 nephrectomy or sham surgery were anesthetized by Zoletil 50/Xylazine (6 mg/1.3 mg/Kg, i.p.). Then, the left kidney was exposed, and the upper and lower poles were tied with a suture line, followed by right nephrectomy. The peritoneum and skin were then sutured, and the animals were returned to their individual cages. […] Two weeks after sham or 5/6 nephrectomy surgery, the animals were subjected to a 24-hour urine collection and non-invasive tail blood pressure measurement every 4 weeks. Four weeks after the surgery, rats underwent 5/6 nephrectomy or shame surgery were randomly assigned into two groups, i.e., the control and the telbivudine groups, in which the control group received saline treatment, and rats in the telbivudine group received telbivudine (10 mg/mL/Kg) treatment for 8 or 12 weeks. Animals were then sacrificed, and kidney and heart biopsy samples were obtained.
Total RNA was extracted from fresh frozen renal and heart tissues using the Trizol Reagent (Life Technologies), according to the manufacturer protocol. Briefly, renal cortex or heart tissue (150 mg) was homogenized with 1 ml Trizol, and RNA-containing aqueous phase was obtained by centrifugation. Following the precipitation of RNA by centrifugation with 0.5 volume isopropanol and purification with 75% ethanol, the extracted total RNA was dissolved in 80 μL nuclease-free deionized distilled water and stored at −20° C. The concentration and purity of RNA were determined by Nanodrop Spectrophotometer (Thermo Scientific). First-strand cDNAs were synthesized from template RNA (1 μg) using Transcriptor First Strand cDNA Synthesis Kit (Roche), according to the manufacturer's protocol. Real-time PCR was performed using 2 μL template in a 20-μL reaction containing 1 μM of each primer and 10 μLLightCyclerFastStartUniversal SYBR Green Master (ROX) (Roche). […]
(§2) 5/6 nephrectomy is a procedure in which one kidney of a test animal is removed and 2/3 of the remaining kidney is ablated, thereby mimics the progressive renal failure after loss of renal mass in humans. […] Blood and urine samples were respectively collected on designated days and analyzed for the levels of blood urine nitrogen (BUN), serum creatine (CR), and hepatic enzymes (i.e., alanine aminotransferase (ALT) and aspartate aminotransferase (AST)). Heart function was determined by monitoring the changes in diastolic parameter—Tissue Velocity Imaging (TVI_V), E/A ratio, and the strain in cardia muscle (C_strain), left ventrical mass (LVMASS). […]

[4] = system: IL-6, TGF-β, TIMP1 and COL-1-A1 in kidney tissue of CKD rats; assay: Western blot of inflammatory proteins in kidney tissue of CKD rats; format: in vivo, Sprague Dawley rats
Experimental: as §1
For protein identification, 30 μg nuclear extracted protein was loaded in each lane of the SDS-PAGE gel (8%) and separated by electrophoresis. The separated proteins were then electro-transferred to polyvinylidene fluoride (PVDF) membranes (GE Healthcare Bio-Sciences, Little Chalfont, UK), and blocked with 5% fat-free skim milk in TRIS-buffered saline containing 0.01% Tween-20 for 60 min at room temperature. The membrane was then incubated with rabbit polyclonalanti-IL-6, TGF-β, TIMP-1 and COL1-1 (diluted 1:1000 in PBS/5% skim milk; Novus. Biologicals) antibodies overnight at 4, respectively. HRP conjugated anti-rabbit IgG (Promega) was then used as secondary antibody. Immunoreactive protein was visualized by the chemiluminescence protocol (ECL, GE HealthcareBio-Sciences). Anti-actin rabbit polyclonal antibody (1:1000; Sigma-Aldrich) was used for calibration.
as §2, with “humans. Briefly, approximately 50% of the remaining kidney of the rat was removed by polar excision 1-2 weeks after uni-nephrectomy. Then, the animals were randomly assigned to two groups, the telbivudine group and the control group.” for “humans.”

CKD rats [5] = assay: Heart fibrosis in CKD rats; format: in vivo, Sprague Dawley rats; conditions: heart tissue of CKD rats, telbivudine-treated vs untreated (FIG. 5)
Experimental: (§3) SD rats (about 10 weeks old) scheduled to undergo 5/6 nephrectomy or sham surgery were anesthetized by Zoletil 50/Xylazine (6 mg/1.3 mg/Kg, i.p.). Then, the left kidney was exposed, and the upper and lower poles were tied with a suture line, followed by right nephrectomy. The peritoneum and skin were then sutured, and the animals were returned to their individual cages. […] Two weeks after sham or 5/6 nephrectomy surgery, the animals were subjected to a 24-hour urine collection and non-invasive tail blood pressure measurement every 4 weeks. […]
as §2

CKD rats [6] = assay: Cardiac muscle strain measurement by heart ultrasound in CKD rats; format: in vivo, Sprague Dawley rats; conditions: vs control animals
Experimental: SD rats (about 10 weeks old) scheduled to undergo 5/6 nephrectomy or sham surgery were anesthetized by Zoletil 50/Xylazine (6 mg/1.3 mg/Kg, i.p.). Then, the left kidney was exposed, and the upper and lower poles were tied with a suture line, followed by right nephrectomy. The peritoneum and skin were then sutured, and the animals were returned to their individual cages. For animals underwent sham surgery, the left kidney was exposed in similar manner, but was then placed back into the abdominal cavity without further treatment, peritoneum and skin were then sutured. Two weeks after sham or 5/6 nephrectomy surgery, the animals were subjected to a 24-hour urine collection and non-invasive tail blood pressure measurement every 4 weeks. […] Once the animal became unconscious, it was then connected to heart ultrasound machine (Vivid i, General Electric Company, US) and heart function paraments including changes in diastolic parameter-Tissue Velocity Imaging (TVI_V) and E/A ratio, the strain in cardia muscle (C_strain), and left ventrical mass ([…]) were respectively measured. […] Blood and urine samples were respectively collected on designated days and analyzed for the levels of blood urine nitrogen (BUN), serum creatine (CR), and hepatic enzymes (i.e., alanine aminotransferase (ALT) and aspartate aminotransferase (AST)). […]

[7] = system: IL-6 and COL-1-A1 in heart tissue of CKD rats; assay: Quantitative RT-PCR of IL-6 and COL-1-A1 in heart tissue of CKD rats; format: in vivo, Sprague Dawley rats
Experimental: as §3
Total RNA was extracted from fresh frozen renal and heart tissues using the Trizol Reagent (Life Technologies), according to the manufacturer protocol. […] The concentration and purity of RNA were determined by Nanodrop Spectrophotometer (Thermo Scientific). […]
as §2, with “(AST)).” for “(AST)). Heart function was determined by monitoring the changes in diastolic parameter—Tissue Velocity Imaging (TVI_V), E/A ratio, and the strain in cardia muscle (C_strain), left ventrical mass (LVMASS).”

[8] = system: IL-6 and COL-1-A1 in heart tissue of CKD rats; assay: Western blot of IL-6 and COL-1-A1 in heart tissue of CKD rats; format: in vivo, Sprague Dawley rats
Experimental: as §3, §2

CKD rats [9] = assay: Uremic toxins (indoxyl sulfate, P-cresyl sulfate) in serum of CKD rats; format: in vivo, Sprague Dawley rats; conditions: serum collected from CKD rats
Experimental: as §1
(§4) 5/6 nephrectomy is a procedure in which one kidney of a test animal is removed and 2/3 of the remaining kidney is ablated, thereby mimics the progressive renal failure after loss of renal mass in humans. Briefly, approximately 50% of the remaining kidney of the rat was removed by polar excision 1-2 weeks after uni-nephrectomy. Then, the animals were randomly assigned to two groups, the telbivudine group and the control group. Rats in the telbivudine group were orally fed with telbivudine (at a dosage of 100 mg/Kg) for 4, 8 or 12 weeks, while the animals in the control group were given just the water. Blood and urine samples were respectively collected on designated days and analyzed for the levels of blood urine nitrogen (BUN), serum creatine (CR), and hepatic enzymes (i.e., alanine aminotransferase (ALT) and aspartate aminotransferase (AST)). Heart function was determined by monitoring the changes in diastolic parameter—Tissue Velocity Imaging (TVI_V), E/A ratio, and the strain in cardia muscle (C_strain), left ventrical mass (LVMASS). Animals were sacrificed after the experiments were finished, and kidney biopsy samples were obtained.
Indoxyl sulfate (IS) and P-cresyl sulfate (PCS) are uremic toxins that accumulate in the serum of CKD patients, and are known factors for causing heart problems in the CKD subjects.

CKD rats [10] = system: CKD rats; design: species or system Sprague Dawley rats; conditions: rat, in vivo
Text: as §4
In this example, the effect of telbivudine on liver function was investigated.

[11] = telbivudine orally 100 mg/Kg for 8 weeks, vs untreated CKD
[12] = telbivudine orally 100 mg/Kg for 12 weeks

Cc1cn([C@@H]2C[C@@H](O)[C@H](CO)O2)c(=O)[nH]c1=O [telbivudine]
level of BUN (blood urine nitrogen) (CKD rats [1]; [11]): significant reduction
level of CR (serum creatine) (CKD rats [1]; [11]): significant reduction
level of BUN (blood urine nitrogen) (CKD rats [1]; [12]): most significant
level of CR (serum creatine) (CKD rats [1]; [12]): most significant
decrease of extent of kidney fibrosis (CKD rats [2]; telbivudine treatment for 8 weeks (FIG. 2 panel D)): about 62.4%
decrease of extent of kidney fibrosis (CKD rats [2]; telbivudine treatment for 12 weeks (FIG. 2 panel D)): ~79.2%
extent of kidney fibrosis (photographs) (CKD rats [2]; telbivudine-treated vs untreated (FIG. 2 panel B vs C)): significantly reduced
mRNA level of COL-1-A1 [3]: reduced
mRNA level of IL-6 [3]: reduced
mRNA level of TGF-β [3]: reduced
mRNA level of TIMP1 [3]: reduced
protein level of COL-1-A1 [4]: reduced
protein level of IL-6 [4]: reduced
protein level of TGF-β [4]: reduced
protein level of TIMP1 [4]: reduced
extent of fibrotic tissues in heart (CKD rats [5]): markedly reduced
C-strain values (strain in cardia muscle) (CKD rats [6]; CKD animals treated with telbivudine for 8 weeks): significant improvement
C-strain values (strain in cardia muscle) (CKD rats [6]; CKD animals treated with telbivudine for 12 weeks): significant improvement
mRNA level of COL-1-A1 [7]: markedly reduced
mRNA level of IL-6 [7]: markedly reduced
protein level of COL-1-A1 [8]: markedly reduced
protein level of IL-6 [8]: markedly reduced
free level of Indoxyl sulfate (IS) (CKD rats [9]): effectively reduced
free level of P-cresyl sulfate (PCS) (CKD rats [9]): effectively reduced
total level of Indoxyl sulfate (IS) (CKD rats [9]): effectively reduced
total level of P-cresyl sulfate (PCS) (CKD rats [9]): effectively reduced
level of alanine aminotransferase (ALT) (CKD rats [10]): remained relatively the same
level of aspartate aminotransferase (AST) (CKD rats [10]): remained relatively the same
toxic effects toward liver function (CKD rats [10]): does not possess any toxic effects
